Laboratory results reported in US20070281330A1, “Method for Examining the Activity of Ion Channels” (priority 2004, published 2007).
“And” between values parts separate entries of the source, which are not always exact repeats. Equal values may be shown once.

Assays:
sodium channel SCN5a = sodium channel SCN5a (Homo sapiens, UniProt Q14524); type: cell-based
Kv1.3 = biological target: T1, Kv1.3 (Homo sapiens, UniProt P22001); assay: FMP membrane potential assay on Kv1.3, suspension cells; type: cell-based; details: 100 nM Margatoxin, FMP dye
T1 construct: expressed in transfected cells

[1] = 110 min 1° C. (after 10 min room temperature)

T1 sequence (P22001 whole entry): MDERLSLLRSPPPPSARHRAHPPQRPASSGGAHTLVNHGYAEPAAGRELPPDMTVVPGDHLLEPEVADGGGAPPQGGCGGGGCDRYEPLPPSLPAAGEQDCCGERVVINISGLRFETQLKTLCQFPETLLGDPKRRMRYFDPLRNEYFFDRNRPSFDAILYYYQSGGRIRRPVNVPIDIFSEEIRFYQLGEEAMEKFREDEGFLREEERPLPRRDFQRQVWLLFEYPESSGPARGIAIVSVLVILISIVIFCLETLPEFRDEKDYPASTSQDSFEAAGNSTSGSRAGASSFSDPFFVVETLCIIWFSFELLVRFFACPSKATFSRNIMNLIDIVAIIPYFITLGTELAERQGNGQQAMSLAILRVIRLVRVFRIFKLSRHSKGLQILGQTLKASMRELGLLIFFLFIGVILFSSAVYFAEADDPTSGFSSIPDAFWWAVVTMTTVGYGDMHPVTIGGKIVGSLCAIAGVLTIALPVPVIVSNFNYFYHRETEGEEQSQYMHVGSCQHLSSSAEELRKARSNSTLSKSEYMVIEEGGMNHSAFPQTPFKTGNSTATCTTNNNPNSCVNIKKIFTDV
sodium channel SCN5a, sequence (Q14524 whole entry, looked up): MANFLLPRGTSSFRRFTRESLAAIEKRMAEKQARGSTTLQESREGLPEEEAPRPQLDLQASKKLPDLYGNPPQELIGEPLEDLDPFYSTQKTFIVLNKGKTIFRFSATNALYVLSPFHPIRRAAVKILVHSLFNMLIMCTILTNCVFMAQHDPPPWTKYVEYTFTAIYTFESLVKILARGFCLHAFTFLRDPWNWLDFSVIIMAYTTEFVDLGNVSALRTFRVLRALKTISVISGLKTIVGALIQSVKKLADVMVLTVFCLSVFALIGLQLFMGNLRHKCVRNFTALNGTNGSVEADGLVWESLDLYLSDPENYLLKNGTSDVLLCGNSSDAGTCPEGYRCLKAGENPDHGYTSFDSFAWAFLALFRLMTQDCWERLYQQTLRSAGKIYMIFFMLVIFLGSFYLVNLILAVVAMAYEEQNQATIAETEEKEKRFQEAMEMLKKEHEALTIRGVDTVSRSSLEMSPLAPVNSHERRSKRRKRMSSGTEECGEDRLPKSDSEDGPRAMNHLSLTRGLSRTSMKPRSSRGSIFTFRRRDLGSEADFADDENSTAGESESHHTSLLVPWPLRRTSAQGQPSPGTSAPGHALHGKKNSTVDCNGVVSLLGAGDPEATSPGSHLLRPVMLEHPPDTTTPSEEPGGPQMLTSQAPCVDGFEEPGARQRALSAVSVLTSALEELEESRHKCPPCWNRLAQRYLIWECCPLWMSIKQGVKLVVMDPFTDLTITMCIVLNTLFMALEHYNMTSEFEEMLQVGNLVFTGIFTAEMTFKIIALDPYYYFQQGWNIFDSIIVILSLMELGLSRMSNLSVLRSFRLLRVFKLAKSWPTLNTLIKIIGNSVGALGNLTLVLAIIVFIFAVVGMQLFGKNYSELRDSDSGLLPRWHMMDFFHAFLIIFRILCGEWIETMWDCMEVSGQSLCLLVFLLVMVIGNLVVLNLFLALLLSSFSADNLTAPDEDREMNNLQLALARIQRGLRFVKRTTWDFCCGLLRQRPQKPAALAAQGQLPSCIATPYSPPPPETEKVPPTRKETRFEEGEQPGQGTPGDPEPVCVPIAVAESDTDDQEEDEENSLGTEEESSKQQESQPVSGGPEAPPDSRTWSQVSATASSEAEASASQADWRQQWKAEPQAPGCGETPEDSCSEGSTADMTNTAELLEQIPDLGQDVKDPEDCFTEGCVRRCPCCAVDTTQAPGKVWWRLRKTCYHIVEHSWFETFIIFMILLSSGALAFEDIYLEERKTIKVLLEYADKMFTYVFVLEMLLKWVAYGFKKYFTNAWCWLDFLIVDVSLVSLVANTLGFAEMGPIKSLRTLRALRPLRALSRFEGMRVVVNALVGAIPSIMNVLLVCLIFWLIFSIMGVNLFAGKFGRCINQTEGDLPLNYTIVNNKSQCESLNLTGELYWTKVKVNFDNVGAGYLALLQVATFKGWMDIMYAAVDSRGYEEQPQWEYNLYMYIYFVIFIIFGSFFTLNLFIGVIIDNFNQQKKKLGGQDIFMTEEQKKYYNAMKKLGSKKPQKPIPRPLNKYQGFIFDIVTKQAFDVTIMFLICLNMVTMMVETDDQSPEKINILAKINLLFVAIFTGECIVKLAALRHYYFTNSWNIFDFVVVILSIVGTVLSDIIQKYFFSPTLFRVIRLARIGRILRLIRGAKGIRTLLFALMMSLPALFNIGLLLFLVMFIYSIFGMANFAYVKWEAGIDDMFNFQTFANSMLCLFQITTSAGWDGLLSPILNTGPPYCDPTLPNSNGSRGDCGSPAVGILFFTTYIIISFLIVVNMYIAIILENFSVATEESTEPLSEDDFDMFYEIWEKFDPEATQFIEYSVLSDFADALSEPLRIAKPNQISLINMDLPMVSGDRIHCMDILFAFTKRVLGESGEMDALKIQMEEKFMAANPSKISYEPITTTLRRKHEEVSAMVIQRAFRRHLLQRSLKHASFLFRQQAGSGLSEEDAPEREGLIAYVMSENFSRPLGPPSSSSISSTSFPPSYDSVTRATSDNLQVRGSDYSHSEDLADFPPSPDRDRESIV

Row | Molecule | 18° C. [RFUs] (sodium channel SCN5a) | Increase [%] (Kv1.3; 10 min room temperature) | [rfu] (Kv1.3; 10 min room temperature) | Increase [%] (Kv1.3; [1]) | [rfu] (Kv1.3; [1])
1 | NC1=N[C@H](O)[C@H]2[C@H]3O[C@]4(O)O[C@@H]([C@@H](O)[C@@]2(N1)[C@@H]4O)[C@]3(O)CO [TTX, tetrodotoxin] | 4636.0 RFUs and 5379.0 RFUs and 2882.0 RFUs and 3816.0 RFUs and 4067.0 RFUs and 4401.0 RFUs and 5620.0 RFUs and 5034.0 RFUs | – | – | – | –
2 | Margatoxin | – | 3% and 2.93% | 22479.50 rfu | 68% and 68.04% | 47474.00 rfu
